Here are results for 13 compounds from patent publication US4877893A, “Process for the preparation of 2-(O-alkyl)-2-thio-1,3,2-oxathiophospholanes” (priority 1987, dated 1989).

Common to all, as to test: Fungicidal effect on infected agar nutrient media, colony diameter
Common to all, as to assay type: cell-based

In one assay the test system is Sclerotinia sclerotinia. The following applies: 3rd day after treatment, untreated control 41.7. As for the experimental part: (§1) Agar nutrient media (Diameter 70 MM, thickness 10 mm) infected by Sclerotonia sclerotinia suspension are treated with 20 EC formulations prepared according to Example 27 and comprising 1, 10, 100 and 1000 ppm, respectively of the active ingredient of the Formula I. The fungicidal effect of the compositions is evaluated on the 3rd day after treatment by measuring the diameter of the Fungi colonies.

A further assay deals with Penicillium cyclopium. The following applies: 7th day after treatment, untreated 26.5. As to the method:
as §1
The series of measureents described in Example 35 is carried out except that the agar nutrient media are infected by a Penicillium cyclopium Fungi strain and the test is evaluated on the 7th day after treatment.

Another assay concerns Alternaria tenuis. The following applies: 5th day after treatment, untreated control 36.8. As for the experimental part:
as §1
The series of measurements according to Example 35 is carried out except that the agar nutrient media are infected by Alternaria Tenius and evaluation is accomplished on the 5th day after treatment.

Molecules are shown by their SMILES.

In the case of `S=P1(OCCBr)OCCS1` (stereo not drawn) [Compound 2, 2-(O-2'-bromoethyl)-2-thio-1,3,2-oxathiophospholane], the “Diameter of colony (mm)” value in the assay on Sclerotinia sclerotinia (1 ppm) stood at 32.9 mm; in the assay with Sclerotinia sclerotinia (10 ppm), 29.3 mm; in the assay on Sclerotinia sclerotinia (100 ppm), 3.1 mm; with Sclerotinia sclerotinia (1000 ppm), 0 mm; in the assay on Penicillium cyclopium (1 ppm) it was 24.6 mm; with Penicillium cyclopium (10 ppm) it was 19.0 mm. Also, the “Diameter of colony (mm)” value came to 8.4 mm in the assay on Penicillium cyclopium (100 ppm); 0 mm in the assay on Penicillium cyclopium (1000 ppm); 30.9 mm in the assay on Alternaria tenuis (1 ppm); 26.1 mm with Alternaria tenuis (10 ppm); 5.3 mm in the assay on Alternaria tenuis (100 ppm); 0 mm in the assay with Alternaria tenuis (1000 ppm).
Regarding `S=P1(OCCI)OCCS1` (stereo not drawn) [Compound 3, 2-(O-2'-iodoethyl)-2-thio1,3,2-oxathiophospholane], the “Diameter of colony (mm)” value in the assay on Sclerotinia sclerotinia (1 ppm) turned out to be 37.4 mm; in the assay with Sclerotinia sclerotinia (10 ppm), 30.0 mm; in the assay on Sclerotinia sclerotinia (100 ppm), 2.1 mm; in the assay with Sclerotinia sclerotinia (1000 ppm) it was 0 mm; in the assay with Penicillium cyclopium (1 ppm) it was 25.0 mm; in the assay on Penicillium cyclopium (10 ppm), 18.6 mm. Also, the “Diameter of colony (mm)” value in the assay on Penicillium cyclopium (100 ppm) is given as 7.1 mm; in the assay on Penicillium cyclopium (1000 ppm), 0 mm; in the assay with Alternaria tenuis (1 ppm), 34.6 mm; with Alternaria tenuis (10 ppm), 22.4 mm; in the assay with Alternaria tenuis (100 ppm) it was 6.8 mm; with Alternaria tenuis (1000 ppm), 0 mm.
With `CC1CSP(=S)(OCCCl)O1` (stereo not drawn) [Compound 4, 2-(0-2'-chloroethyl)-2-thio-5-methyl-1,3,2-oxathiophospholane], the “Diameter of colony (mm)” value with Sclerotinia sclerotinia (1 ppm) is 34.6 mm; in the assay on Sclerotinia sclerotinia (10 ppm), 27.6 mm; with Sclerotinia sclerotinia (100 ppm) it was 0 mm; with Sclerotinia sclerotinia (1000 ppm) it was 0 mm; in the assay on Penicillium cyclopium (1 ppm), 24.1 mm; in the assay on Penicillium cyclopium (10 ppm) it was 19.4 mm. The “Diameter of colony (mm)” value in the assay on Penicillium cyclopium (100 ppm) worked out at 9.0 mm; in the assay on Penicillium cyclopium (1000 ppm), 0 mm; in the assay on Alternaria tenuis (1 ppm), 32.6 mm; in the assay on Alternaria tenuis (10 ppm), 23.7 mm; in the assay on Alternaria tenuis (100 ppm) it was 6.5 mm; in the assay on Alternaria tenuis (1000 ppm) it was 0 mm.
In the case of `CC1CSP(=S)(OCCBr)O1` (stereo not drawn) [Compound 5], the “Diameter of colony (mm)” value with Sclerotinia sclerotinia (1 ppm) is on record as 35.4 mm; in the assay with Sclerotinia sclerotinia (10 ppm), 29.2 mm; in the assay on Sclerotinia sclerotinia (100 ppm) it was 1.7 mm; in the assay with Sclerotinia sclerotinia (1000 ppm) it was 0 mm; in the assay on Penicillium cyclopium (1 ppm), 20.1 mm; with Penicillium cyclopium (10 ppm), 19.5 mm. Further, the “Diameter of colony (mm)” value with Penicillium cyclopium (100 ppm) stood at 7.8 mm; in the assay on Penicillium cyclopium (1000 ppm) it was 0 mm; in the assay on Alternaria tenuis (1 ppm), 34.9 mm; in the assay with Alternaria tenuis (10 ppm) it was 22.3 mm; in the assay with Alternaria tenuis (100 ppm) it was 7.9 mm; in the assay on Alternaria tenuis (1000 ppm) it was 0 mm.
`CC1CSP(=S)(OCCI)O1` (stereo not drawn) [Compound 6]: the “Diameter of colony (mm)” value in the assay with Sclerotinia sclerotinia (1 ppm) was 39.3 mm; in the assay on Sclerotinia sclerotinia (10 ppm) it was 30.0 mm; in the assay with Sclerotinia sclerotinia (100 ppm) it was 1.0 mm; in the assay with Sclerotinia sclerotinia (1000 ppm), 0 mm; with Penicillium cyclopium (1 ppm), 21.3 mm; with Penicillium cyclopium (10 ppm) it was 17.3 mm. The “Diameter of colony (mm)” value with Penicillium cyclopium (100 ppm) turned out to be 9.0 mm; in the assay on Penicillium cyclopium (1000 ppm) it was 0 mm; with Alternaria tenuis (1 ppm), 35.5 mm; in the assay on Alternaria tenuis (10 ppm), 21.0 mm; with Alternaria tenuis (100 ppm), 6.0 mm; in the assay with Alternaria tenuis (1000 ppm) it was 0 mm.
Turning to `CC1COP(=S)(OCCCl)S1` (stereo not drawn) [Compound 7], the “Diameter of colony (mm)” value was 38.1 mm with Sclerotinia sclerotinia (1 ppm); 31.2 mm in the assay on Sclerotinia sclerotinia (10 ppm); 0 mm in the assay on Sclerotinia sclerotinia (100 ppm); 0 mm in the assay on Sclerotinia sclerotinia (1000 ppm); 25.4 mm in the assay on Penicillium cyclopium (1 ppm); 16.7 mm in the assay on Penicillium cyclopium (10 ppm). The “Diameter of colony (mm)” value was 8.8 mm in the assay on Penicillium cyclopium (100 ppm); 0 mm in the assay with Penicillium cyclopium (1000 ppm); 34.7 mm with Alternaria tenuis (1 ppm); 25.5 mm in the assay with Alternaria tenuis (10 ppm); 5.9 mm in the assay with Alternaria tenuis (100 ppm); 0 mm in the assay on Alternaria tenuis (1000 ppm).
On to `CC1COP(=S)(OCCBr)S1` (stereo not drawn) [Compound 8], for which the “Diameter of colony (mm)” value in the assay on Sclerotinia sclerotinia (1 ppm) is recorded as 37.6 mm; in the assay with Sclerotinia sclerotinia (10 ppm), 29.9 mm; with Sclerotinia sclerotinia (100 ppm), 1.0 mm; in the assay on Sclerotinia sclerotinia (1000 ppm), 0 mm; in the assay on Penicillium cyclopium (1 ppm), 20.0 mm; with Penicillium cyclopium (10 ppm), 18.3 mm. The “Diameter of colony (mm)” value turned out to be 7.9 mm with Penicillium cyclopium (100 ppm); 0 mm with Penicillium cyclopium (1000 ppm); 30.1 mm in the assay on Alternaria tenuis (1 ppm); 26.1 mm in the assay on Alternaria tenuis (10 ppm); 6.4 mm in the assay on Alternaria tenuis (100 ppm); 0 mm in the assay with Alternaria tenuis (1000 ppm).
On to `CC1COP(=S)(OCCI)S1` (stereo not drawn) [Compound 9, 2-(0-2'-iodoethyl)-2-thio-4-methyl-1,3,2-oxathiophospholane], for which the “Diameter of colony (mm)” value was found to be 39.2 mm in the assay on Sclerotinia sclerotinia (1 ppm); 27.6 mm in the assay with Sclerotinia sclerotinia (10 ppm); 3.9 mm in the assay on Sclerotinia sclerotinia (100 ppm); 0 mm in the assay with Sclerotinia sclerotinia (1000 ppm); 23.2 mm in the assay with Penicillium cyclopium (1 ppm); 15.8 mm in the assay with Penicillium cyclopium (10 ppm). The “Diameter of colony (mm)” value is recorded as 5.7 mm in the assay on Penicillium cyclopium (100 ppm); 0 mm with Penicillium cyclopium (1000 ppm); 30.6 mm in the assay with Alternaria tenuis (1 ppm); 24.6 mm in the assay on Alternaria tenuis (10 ppm); 8.9 mm with Alternaria tenuis (100 ppm); 0 mm with Alternaria tenuis (1000 ppm).
As to `CC(CCl)OP1(=S)OCCS1` (stereo not drawn) [Compound 10, 2-(0-1'-methyl-2'-chloroethyl)-2-thio-1,3,2-oxathiophospholane], the “Diameter of colony (mm)” value in the assay with Sclerotinia sclerotinia (1 ppm) came to 40.1 mm; in the assay on Sclerotinia sclerotinia (10 ppm), 31.3 mm; in the assay with Sclerotinia sclerotinia (100 ppm), 1.8 mm; with Sclerotinia sclerotinia (1000 ppm), 0 mm; in the assay on Penicillium cyclopium (1 ppm) it was 21.3 mm; in the assay with Penicillium cyclopium (10 ppm), 19.0 mm. The “Diameter of colony (mm)” value in the assay with Penicillium cyclopium (100 ppm) stood at 6.8 mm; in the assay on Penicillium cyclopium (1000 ppm) it was 0 mm; in the assay with Alternaria tenuis (1 ppm), 33.9 mm; in the assay with Alternaria tenuis (10 ppm), 21.6 mm; with Alternaria tenuis (100 ppm) it was 5.8 mm; in the assay with Alternaria tenuis (1000 ppm), 0 mm.
Regarding `CC(CBr)OP1(=S)OCCS1` (stereo not drawn) [Compound 11], the “Diameter of colony (mm)” value came to 34.6 mm with Sclerotinia sclerotinia (1 ppm); 30.6 mm with Sclerotinia sclerotinia (10 ppm); 2.8 mm in the assay on Sclerotinia sclerotinia (100 ppm); 0 mm in the assay on Sclerotinia sclerotinia (1000 ppm); 24.1 mm in the assay with Penicillium cyclopium (1 ppm); 17.5 mm in the assay with Penicillium cyclopium (10 ppm). The “Diameter of colony (mm)” value was found to be 8.3 mm with Penicillium cyclopium (100 ppm); 0 mm in the assay with Penicillium cyclopium (1000 ppm); 35.9 mm in the assay on Alternaria tenuis (1 ppm); 24.1 mm in the assay on Alternaria tenuis (10 ppm); 4.6 mm with Alternaria tenuis (100 ppm); 0 mm with Alternaria tenuis (1000 ppm).
On to `CC(CI)OP1(=S)OCCS1` (stereo not drawn) [Compound 12], for which the “Diameter of colony (mm)” value in the assay with Sclerotinia sclerotinia (1 ppm) was determined as 35.9 mm; in the assay with Sclerotinia sclerotinia (10 ppm) it was 27.4 mm; in the assay with Sclerotinia sclerotinia (100 ppm), 3.7 mm; in the assay on Sclerotinia sclerotinia (1000 ppm), 0 mm; in the assay on Penicillium cyclopium (1 ppm), 25.8 mm; with Penicillium cyclopium (10 ppm), 16.1 mm. In addition, the “Diameter of colony (mm)” value with Penicillium cyclopium (100 ppm) is 4.7 mm; with Penicillium cyclopium (1000 ppm) it was 0 mm; in the assay on Alternaria tenuis (1 ppm), 34.5 mm; in the assay on Alternaria tenuis (10 ppm), 22.0 mm; in the assay on Alternaria tenuis (100 ppm), 4.8 mm; in the assay with Alternaria tenuis (1000 ppm), 0 mm.
Regarding `CC(Cl)COP1(=S)OCCS1` (stereo not drawn) [Compound 13, 2-(0-2'-methyl-2'-chloroethyl)-2-thio-1,3,2-oxathiophospholane], the “Diameter of colony (mm)” value in the assay with Sclerotinia sclerotinia (1 ppm) came out at 33.9 mm; with Sclerotinia sclerotinia (10 ppm), 32.1 mm; in the assay on Sclerotinia sclerotinia (100 ppm), 1.7 mm; in the assay on Sclerotinia sclerotinia (1000 ppm) it was 0 mm; in the assay on Penicillium cyclopium (1 ppm), 24.5 mm; in the assay with Penicillium cyclopium (10 ppm), 19.2 mm. The “Diameter of colony (mm)” value with Penicillium cyclopium (100 ppm) is on record as 7.5 mm; in the assay on Penicillium cyclopium (1000 ppm), 0 mm; in the assay with Alternaria tenuis (1 ppm), 32.2 mm; in the assay on Alternaria tenuis (10 ppm), 25.8 mm; in the assay with Alternaria tenuis (100 ppm), 5.1 mm; in the assay on Alternaria tenuis (1000 ppm), 0 mm.
As for `CC(Br)COP1(=S)OCCS1` (stereo not drawn) [Compound 14], the “Diameter of colony (mm)” value in the assay on Sclerotinia sclerotinia (1 ppm) worked out at 38.1 mm; with Sclerotinia sclerotinia (10 ppm), 28.1 mm; in the assay with Sclerotinia sclerotinia (100 ppm), 0 mm; with Sclerotinia sclerotinia (1000 ppm) it was 0 mm; in the assay on Penicillium cyclopium (1 ppm), 18.2 mm; in the assay with Penicillium cyclopium (10 ppm) it was 17.6 mm. For the same compound, the “Diameter of colony (mm)” value in the assay on Penicillium cyclopium (100 ppm) came to 7.9 mm; with Penicillium cyclopium (1000 ppm) it was 0 mm; with Alternaria tenuis (1 ppm) it was 31.3 mm; with Alternaria tenuis (10 ppm), 21.3 mm; in the assay on Alternaria tenuis (100 ppm) it was 5.7 mm; in the assay on Alternaria tenuis (1000 ppm), 0 mm.
